Laboratory results reported in PubChem BioAssay AID1845219 (Molecular Pharmacology Branch, DTP, NCI, 2023).
Where “and” joins values, the source holds several entries; their conditions need not be identical. Equal values may be shown once.

Test system: SYO-1 tumor spheroids, viability % test/control
Assay: Anticancer human tumor SYO-1 cell line growth inhibition;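 further: spheroids exposed to agents for 7 days before viability read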;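 on viability, T/C: 100% = DMSO vehicle control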
Details: spheroids with HUVEC and MSC; for viability, T/C: stronger effect = lower value
In short: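 Complex spheroids of malignant cells with endothelial cells and mesenchymal stem cells; agents alone or combined, from near clinical Cmax (or 10 microM if unknown) down in half-log steps, 0.25% DMSO final.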

[1] = curve of first compound, second compound 1 µM
[2] = curve of first compound, second compound 3.16 µM
[3] = curve of first compound, second compound 10 µM
[4] = curve of first compound, second compound 31.6 µM
[5] = curve of first compound, second compound 100 µM
[6] = second compound 1 µM, first compound 0.00949 µM
[7] = second compound 1 µM, first compound 0.03 µM
[8] = second compound 1 µM, first compound 0.0949 µM
[9] = second compound 1 µM, first compound 0.3 µM
[10] = second compound 1 µM, first compound 0.949 µM
[11] = second compound 1 µM, first compound 3 µM
[12] = second compound 3.16 µM, first compound 0.00949 µM
[13] = second compound 3.16 µM, first compound 0.03 µM
[14] = second compound 3.16 µM, first compound 0.0949 µM
[15] = second compound 3.16 µM, first compound 0.3 µM
[16] = second compound 3.16 µM, first compound 0.949 µM
[17] = second compound 3.16 µM, first compound 3 µM
[18] = second compound 10 µM, first compound 0.00949 µM
[19] = second compound 10 µM, first compound 0.03 µM
[20] = second compound 10 µM, first compound 0.0949 µM
[21] = second compound 10 µM, first compound 0.3 µM
[22] = second compound 10 µM, first compound 0.949 µM
[23] = second compound 10 µM, first compound 3 µM
[24] = second compound 31.6 µM, first compound 0.00949 µM
[25] = second compound 31.6 µM, first compound 0.03 µM
[26] = second compound 31.6 µM, first compound 0.0949 µM
[27] = second compound 31.6 µM, first compound 0.3 µM
[28] = second compound 31.6 µM, first compound 0.949 µM
[29] = second compound 31.6 µM, first compound 3 µM
[30] = second compound 100 µM, first compound 0.00949 µM
[31] = second compound 100 µM, first compound 0.03 µM
[32] = second compound 100 µM, first compound 0.0949 µM
[33] = second compound 100 µM, first compound 0.3 µM
[34] = second compound 100 µM, first compound 0.949 µM
[35] = second compound 100 µM, first compound 3 µM

Q: Which results are given for `Cn1ncnc1[C@H]1c2n[nH]c(=O)c3cc(F)cc(c23)N[C@@H]1c1ccc(F)cc1` + Cn1nnc2c(C(N)=O)ncn2c1=O?
A: IC50 [1]: 16.3 nM; IC50 [2]: 12.8 nM; IC50 [3]: < 9.49 nM; IC50 [4]: < 9.49 nM; IC50 [5]: < 9.49 nM; viability, T/C [6]: 79.6%; viability, T/C [7]: 16.8%; viability, T/C [8]: 4.52%; viability, T/C [9]: 2.53%; viability, T/C [10]: 1.69%; viability, T/C [11]: 1.94%; viability, T/C [12]: 65%; viability, T/C [13]: 7.02%; viability, T/C [14]: 2.83%; viability, T/C [15]: 2.28%; viability, T/C [16]: 2.09%; viability, T/C [17]: 1.5%; viability, T/C [18]: 4.61%; viability, T/C [19]: 2.33%; viability, T/C [20]: 2.35%; viability, T/C [21]: 1.79%; viability, T/C [22]: 1.63%; viability, T/C [23]: 2.1%; viability, T/C [24]: 2.52%; viability, T/C [25]: 2.5%; viability, T/C [26]: 2.35%; viability, T/C [27]: 1.86%; viability, T/C [28]: 2%; viability, T/C [29]: 1.4%; viability, T/C [30]: 2.64%; viability, T/C [31]: 2.03%; viability, T/C [32]: 2.06%; viability, T/C [33]: 2.04%; viability, T/C [34]: 1.62%; viability, T/C [35]: 1.71%

Q: What does the source list for `Cc1sc2c(c1C)C(c1ccc(Cl)cc1)=NC(CC(=O)Nc1ccc(O)cc1)c1nnc(C)n1-2` (configuration not stated) + Cn1nnc2c(C(N)=O)ncn2c1=O?
A: IC50 [1]: 64.2 nM; IC50 [2]: 63.2 nM; IC50 [3]: 59.2 nM; IC50 [4]: 53.5 nM; IC50 [5]: 26.1 nM; viability, T/C [6]: 93.6%; viability, T/C [7]: 89.6%; viability, T/C [8]: 29.7%; viability, T/C [9]: 1.14%; viability, T/C [10]: 0.56%; viability, T/C [11]: 0.57%; viability, T/C [12]: 93.6%; viability, T/C [13]: 89.3%; viability, T/C [14]: 28.6%; viability, T/C [15]: 1.02%; viability, T/C [16]: 0.71%; viability, T/C [17]: 0.61%; viability, T/C [18]: 94.3%; viability, T/C [19]: 91.3%; viability, T/C [20]: 21.4%; viability, T/C [21]: 1.06%; viability, T/C [22]: 0.76%; viability, T/C [23]: 0.54%; viability, T/C [24]: 101%; viability, T/C [25]: 84.8%; viability, T/C [26]: 15.5%; viability, T/C [27]: 1.03%; viability, T/C [28]: 0.85%; viability, T/C [29]: 0.62%; viability, T/C [30]: 91.8%; viability, T/C [31]: 44.3%; viability, T/C [32]: 1.77%; viability, T/C [33]: 1.29%; viability, T/C [34]: 0.88%; viability, T/C [35]: 0.73%

Q: For `Cc1sc2c(c1C)C(c1ccc(Cl)cc1)=NC(CC(=O)Nc1ccc(O)cc1)c1nnc(C)n1-2` (configuration not stated), which viability, T/C (compound 0.00949 µM) is on record?
A: 93.8% and 91.9% and 91.3%

Q: And the viability, T/C (compound 0.03 µM)?
A: 90.7% and 90.8% and 85.5%

Q: And the viability, T/C (compound 0.0949 µM)?
A: 31.8% and 49.4% and 54.7%

Q: What about the viability, T/C (compound 0.3 µM) of the same molecule?
A: 1.04% and 3.66% and 1.07%

Q: What about the viability, T/C (compound 0.949 µM) of the same molecule?
A: 0.73% and 0.9% and 0.49%

Q: And the viability, T/C (compound 3 µM)?
A: 0.63% and 0.72% and 0.4%

Q: And the IC50 (curve of compound)?
A: 66.5 nM and 93.4 nM and 105 nM

Q: How did the IC50 [1] turn out when `COc1cc(C)[nH]c(=O)c1CN1CCc2c(Cl)cc(C(OC)C3COC3)c(Cl)c2C1=O` (configuration not stated) + Cn1nnc2c(C(N)=O)ncn2c1=O was run?
A: > 10000 nM

Q: What about the IC50 [2] of the same molecule?
A: > 10000 nM

Q: What about the IC50 [3] of the same molecule?
A: > 10000 nM

Q: What about the IC50 [4] of the same molecule?
A: > 10000 nM

Q: And the IC50 [5]?
A: 697 nM

Q: What about the viability, T/C (second compound 1 µM, first compound 0.0316 µM) of the same molecule?
A: 110%

Q: And the viability, T/C (second compound 1 µM, first compound 0.1 µM)?
A: 108%

Q: What about the viability, T/C (second compound 1 µM, first compound 0.316 µM) of the same molecule?
A: 97.7%

Q: What about the viability, T/C (second compound 1 µM, first compound 1 µM) of the same molecule?
A: 86.7%

Q: What about the viability, T/C (second compound 1 µM, first compound 3.16 µM) of the same molecule?
A: 81.1%

Q: And the viability, T/C (second compound 1 µM, first compound 10 µM)?
A: 73.8%

Q: And the viability, T/C (second compound 3.16 µM, first compound 0.0316 µM)?
A: 110%

Q: What about the viability, T/C (second compound 3.16 µM, first compound 0.1 µM) of the same molecule?
A: 107%

Q: What about the viability, T/C (second compound 3.16 µM, first compound 0.316 µM) of the same molecule?
A: 99.5%

Q: What about the viability, T/C (second compound 3.16 µM, first compound 1 µM) of the same molecule?
A: 89.1%

Q: And the viability, T/C (second compound 3.16 µM, first compound 3.16 µM)?
A: 77%

Q: What about the viability, T/C (second compound 3.16 µM, first compound 10 µM) of the same molecule?
A: 67.8%

Q: What about the viability, T/C (second compound 10 µM, first compound 0.0316 µM) of the same molecule?
A: 108%

Q: And the viability, T/C (second compound 10 µM, first compound 0.1 µM)?
A: 107%

Q: And the viability, T/C (second compound 10 µM, first compound 0.316 µM)?
A: 97.6%

Q: What about the viability, T/C (second compound 10 µM, first compound 1 µM) of the same molecule?
A: 89.7%

Q: And the viability, T/C (second compound 10 µM, first compound 3.16 µM)?
A: 76.2%

Q: And the viability, T/C (second compound 10 µM, first compound 10 µM)?
A: 71.6%

Q: What about the viability, T/C (second compound 31.6 µM, first compound 0.0316 µM) of the same molecule?
A: 119%

Q: And the viability, T/C (second compound 31.6 µM, first compound 0.1 µM)?
A: 111%

Q: What about the viability, T/C (second compound 31.6 µM, first compound 0.316 µM) of the same molecule?
A: 95.1%

Q: What about the viability, T/C (second compound 31.6 µM, first compound 1 µM) of the same molecule?
A: 80.8%

Q: And the viability, T/C (second compound 31.6 µM, first compound 3.16 µM)?
A: 69.6%

Q: And the viability, T/C (second compound 31.6 µM, first compound 10 µM)?
A: 62.4%

Q: And the viability, T/C (second compound 100 µM, first compound 0.0316 µM)?
A: 106%

Q: What about the viability, T/C (second compound 100 µM, first compound 0.1 µM) of the same molecule?
A: 102%

Q: And the viability, T/C (second compound 100 µM, first compound 0.316 µM)?
A: 69.7%

Q: And the viability, T/C (second compound 100 µM, first compound 1 µM)?
A: 40.5%

Q: What about the viability, T/C (second compound 100 µM, first compound 3.16 µM) of the same molecule?
A: 41.7%

Q: What about the viability, T/C (second compound 100 µM, first compound 10 µM) of the same molecule?
A: 35.6%
